Source: publication PMC9886892, “Imidazolium salts as an alternative for anti-Leishmania drugs: Oxidative and immunomodulatory activities” (Frontiers in Immunology, 2023)
Where two headings read alike, the source gives them in different places.

Key:
[1] = system: human erythrocytes; conditions: for RBC50 (CI 95%): concentration of compound that causes 50% of red blood cell hemolysis: 60 min
Method: Triton X-100 1% was used as positive control. The hemolytic assay was performed according to the procedure used by ([13]). […] The microplate was incubated at 37°C under agitation (90 rpm) for 60 min. Then, the suspension was centrifuged at 3,000 rpm for 5 min, and the absorbance of the supernatant was measured at 540 nm using a spectrophotometer EZ Read 400 from Biochrom. Triton X-100 1% and PBS were used as positive and negative control, respectively. […] The selectivity index (SI) (CC50 or RBC50/IC50 against L. amazonensis) were determined for each compound.

[2] = system: L. amazonensis promastigotes; experiment: Mitochondrial membrane potential (rhodamine 123, flow cytometry); assay type: cell-based, Leishmania (L.) amazonensis; conditions: IS 2-fold IC50, 6 h; amphotericin B 0.4 µM; hydrogen peroxide 2 mM
Excerpt: A total of 30,000 events were acquired in the region that corresponded to the parasites. Histograms were build using the CellQuest Pro software (Joseph Trotter, Scripps Research Institute, La Jolla, CA, USA).

[3] = system: L. amazonensis promastigotes; experiment: microbe, parasite or virus in culture; conditions: Leishmania amazonensis, 48 h, read-out: mortality of L. amazonensis promastigotes, 5 µM, 48 h
Method: (§1) Subsequently, 0.5 mg/mL of 3-(4,5-dimethylthiazol-2-yl)-2,5-diphenyltetrazolium bromide (MTT, Sigma-Aldrich®, St. Louis, MO, USA) was added and the incubations continued for an additional 4 h at 26 °C. The purple formazan product that was formed by the action of mitochondrial enzymes in living cells was solubilized by the addition of acidic isopropanol, and the absorbance at 570 nm was measured using a microplate reader spectrophotometer EZ Read 400 from Biochrom. […] The 50% inhibitory concentration (IC50) value for each compound was determined. The survival rate was calculated according to the formula: OD in treated group/OD of untreated group x 100. The 50% inhibitory concentration (IC50) value for each compound was determined by nonlinear regression analysis using GraphPad Prism 5.03 software.

[4] = system: L. amazonensis promastigotes; conditions: for L. amazonensis mortality in the screening test: 100 µM screening concentration
Method: as §1

[5] = system: Macrophages RAW 264.7 cell line
[6] = in vitro; conditions: mouse; for CC50 at 48 h: CC50 (CI 95%): concentration of compound that causes 50% of macrophage mortality
[7] = system: L. amazonensis amastigotes in RAW 264.7 macrophages; experiment: Intramacrophage anti-amastigote activity; assay type: cell-based, Leishmania (L.) amazonensis
Method: The anti-amastigote assay was performed as previously described ([13]). Macrophages RAW 264.7 cell line (ATCC) were cultured in DMEM plus 10% fetal bovine serum (FBS), penicillin (100 U/mL) and streptomycin (100 µg/mL) until reaching 90% confluence, when were distributed into 96-well microplates at a concentration of 2 x 10^5 cells/well in the presence of DMEM. […] The leishmanicidal activity of macrophages was assessed by determining the number of viable parasites (4 replicates) using a hemocytometer.

[8] = system: L. infantum chagasi promastigotes; experiment: microbe, parasite or virus in culture; conditions: Leishmania infantum; for IC50: 48 h, read-out: IC50 (CI 95%): concentration of compound that causes 50% of L. infantum chagasi promastigotes mortality, promastigotes, 48 h, MTT
Method: as §1

[9] = system: L. amazonensis promastigotes; parameters: method as in PMID 30077823; conditions: read-out: IC50 for L. amazonensis promastigotes (previous study); cited from earlier work
[10] = system: L. infantum chagasi promastigotes; conditions: read-out: IC50 (CI 95%): concentration of compound that causes 50% of L. infantum chagasi promastigotes mortality, 48 h, MTT
Method: as §1

[11] = system: L. amazonensis promastigotes; experiment: Detection of reactive oxygen species production (DCF-DA, flow cytometry); assay type: cell-based, Leishmania (L.) amazonensis; conditions: IS 2-fold IC50, 6 h; amphotericin B 0.4 µM; hydrogen peroxide 2 mM
Method: ROS generation was quantified using the dye 2′,7′-dichlorofluorescein diacetate (DCF-DA, Sigma-Aldrich) and flow cytometer analysis ([13], [30], [31]). […] Then, cells were washed with PBS and incubated with 0.5 mL of 10 µM DCF-DA for 30 min at room temperature. After being washed with PBS, cells were resuspended in 0.5 mL PBS and analysed using a BD FACSCalibur (Becton–Dickinson, Rutherford, NJ, USA) flow cytometer and CellQuest Pro software (Joseph Trotter, Scripps Research Institute, La Jolla, CA, USA) using the blue argon-ion 488 nm laser with the FL1 filter channel. A total of 30,000 events were acquired in the region that corresponded to living parasite.

[12] = Leishmania amazonensis, RAW264.7, 48 h, read-out: IC50 (CI 95%): concentration of compound that causes 50% of L. amazonensis amastigotes mortality, infected RAW 264.7 macrophages, 48 h

SMILES: CCCCCCCCCCn1cc[n+](CCCCCCCCCC)c1C.[Cl-] [(C10)2MImCl, 1,3-Didecyl-2-methylimidazolium chloride]
- SI: selectivity index, ratio of CC50 for RBC hemolysis/IC50 for L. amazonensis amastigotes [1]: 105
- SI: selectivity index, ratio of CC50 for RBC hemolysis/IC50 for L. amazonensis promastigotes [1]: 11
- RBC50 (CI 95%): concentration of compound that causes 50% of red blood cell hemolysis ([1]; human red blood cells, 37°C): 20.9 (20-21.9) µM
- mitochondrial membrane potential (ΔΨm) alteration [2]: significant ΔΨm depolarization
- mortality at 5 µM [3]: 97%
- IC50 [4]: 1.9 µM
- L. amazonensis mortality in the screening test ([4]; 48 h): 100%
- SI: selectivity index, ratio of CC50 for macrophage/IC50 for L. amazonensis amastigotes [5]: 82
- SI: selectivity index, ratio of CC50 for macrophage/IC50 for L. amazonensis promastigotes [5]: 8.6
- viability at 48 h [6]: 94%
- CC50 at 48 h ([6]; RAW cells, 48 h, MTT): 16.4 µM
- IC50 [7, 12]: 0.2 µM
- IC50 [8]: 16.5 µM

SMILES: CCCCn1cc[n+](C)c1.CS(=O)(=O)[O-] [C4MImMeS, 1-Butyl-3-methylimidazolium methanesulfonate]
- L. amazonensis mortality in the screening test ([4]; 48 h): without activity

SMILES: CCCCCCCCCCn1cc[n+](C)c1 [C10MImCl, 1-decyl-3-methylimidazolium chloride]
- IC50 [9]: 2.31 µM
- IC50 [8]: 115 µM

SMILES: CCCCCCCCCCn1cc[n+](C)c1.CS(=O)(=O)[O-] [C10MImMeS, 1-decyl-3-methylimidazolium methanesulfonate]
- SI: selectivity index, ratio of CC50 for RBC hemolysis/IC50 for L. amazonensis promastigotes [1]: > 8.6
- concentration up to which no significant hemolysis ([1]; human erythrocytes): up to 40 µM
- RBC50 (CI 95%): concentration of compound that causes 50% of red blood cell hemolysis ([1]; human red blood cells, 37°C): > 100 µM
- mitochondrial membrane potential (ΔΨm) alteration [2]: ΔΨm hyperpolarization
- mortality at 5 µM [3]: 60%
- IC50 [4]: 11.6 µM
- L. amazonensis mortality in the screening test ([4]; 48 h): 100%
- IC50 [10]: > 100 µM
- SI: selectivity index, ratio of CC50 for macrophage/IC50 for L. amazonensis amastigotes [5]: 256
- SI: selectivity index, ratio of CC50 for macrophage/IC50 for L. amazonensis promastigotes [5]: 6.6
- concentration up to which more than 90% of the macrophages kept alive ([5]; mouse, 48 h): up to 50 µM
- viability at 48 h [6]: 89%
- CC50 at 48 h ([6]; RAW cells, 48 h, MTT): 76.9 µM
- IC50 [7, 12]: 0.3 µM

SMILES: CCCCCCCCCCCCCCCCn1ccnc1 [C16Im, 1-hexadecylimidazole]
- SI: selectivity index, ratio of CC50 for RBC hemolysis/IC50 for L. amazonensis amastigotes [1]: > 500
- SI: selectivity index, ratio of CC50 for RBC hemolysis/IC50 for L. amazonensis promastigotes [1]: > 6.8
- RBC50 (CI 95%): concentration of compound that causes 50% of red blood cell hemolysis ([1]; human): > 100 µM
- L. amazonensis mortality in the screening test ([4]; 48 h): 100%
- concentration causing significant parasite mortality ([4]; L. amazonensis promastigotes, 48 h): ≥ 10 µM
- SI: selectivity index, ratio of CC50 for macrophage/IC50 for L. amazonensis amastigotes [5]: 275
- SI: selectivity index, ratio of CC50 for macrophage/IC50 for L. amazonensis promastigotes [5]: 3.8
- CC50 at 48 h [6]: 54.9 µM
- IC50 [7, 12]: 0.2 µM
- IC50 [8]: 8.3 µM

SMILES: CCCCCCCCCCCCCCCCn1cc[n+](C)c1C.[Cl-] [C16M2ImCl, 1-hexadecyl-2,3-dimethylimidazolium chloride]
- SI: selectivity index, ratio of CC50 for RBC hemolysis/IC50 for L. amazonensis amastigotes [1]: 108
- SI: selectivity index, ratio of CC50 for RBC hemolysis/IC50 for L. amazonensis promastigotes [1]: 5.3
- RBC50 (CI 95%): concentration of compound that causes 50% of red blood cell hemolysis ([1]; human): 21.6 (20.8-22.5) µM
- mitochondrial membrane potential (ΔΨm) alteration [2]: significant ΔΨm depolarization
- mortality at 5 µM [3]: 85%
- IC50 [4]: 4.1 µM
- L. amazonensis mortality in the screening test ([4]; 48 h): 100%
- SI: selectivity index, ratio of CC50 for macrophage/IC50 for L. amazonensis amastigotes [5]: 99
- SI: selectivity index, ratio of CC50 for macrophage/IC50 for L. amazonensis promastigotes [5]: 4.8
- CC50 at 48 h ([6]; RAW cells, 48 h, MTT): 19.8 µM
- IC50 [7, 12]: 0.2 µM
- IC50 [8]: 15.4 µM

SMILES: CCCCCCCCCCCCCCCCn1cc[n+](C)c1.[Br-] [C16MImBr, 1-hexadecyl-3-methylimidazolium bromide]
- SI: selectivity index, ratio of CC50 for RBC hemolysis/IC50 for L. amazonensis amastigotes [1]: 114
- SI: selectivity index, ratio of CC50 for RBC hemolysis/IC50 for L. amazonensis promastigotes [1]: 3.8
- RBC50 (CI 95%): concentration of compound that causes 50% of red blood cell hemolysis ([1]; human red blood cells, 37°C): 22.8 (21.7-24) µM
- mitochondrial membrane potential (ΔΨm) alteration [2]: significant ΔΨm depolarization
- IC50 [4]: 6 µM
- mortality of L. amazonensis promastigotes ([4]; 5 µM, 48 h): 42%
- L. amazonensis mortality in the screening test ([4]; 48 h): 100%
- IC50 [10]: 29.7 µM
- SI: selectivity index, ratio of CC50 for macrophage/IC50 for L. amazonensis amastigotes [5]: 80
- SI: selectivity index, ratio of CC50 for macrophage/IC50 for L. amazonensis promastigotes [5]: 2.7
- CC50 at 48 h ([6]; RAW cells, 48 h, MTT): 16 µM
- IC50 ([7]; read-out: IC50 (CI 95%): concentration of compound that causes 50% of L. amazonensis amastigotes mortality, infected RAW 264.7 macrophages, 48 h): 0.2 µM

SMILES: CCCCCCCCCCCCCCCCn1cc[n+](C)c1 [C16MImCl, 1-hexadecyl-3-methylimidazolium chloride]
- IC50 [10]: 9.9 µM
- IC50 [9]: 1.23 µM

SMILES: CCCCCCCCCCCCCCCCn1cc[n+](C)c1 [C16MImNTf2, 1-hexadecyl-3-methylimidazolium bis(trifluoromethylsulfonyl)imide]
- IC50 [9]: 1.64 µM

SMILES: CCCCCCCCCCCCCCCCn1cc[n+](C)c1 [C16MImPF6, 1-hexadecyl-3-methylimidazolium hexafluorophosphate]
- SI: selectivity index, ratio of CC50 for RBC hemolysis/IC50 for L. amazonensis amastigotes [1]: 82.7
- SI: selectivity index, ratio of CC50 for RBC hemolysis/IC50 for L. amazonensis promastigotes [1]: 3.6
- RBC50 (CI 95%): concentration of compound that causes 50% of red blood cell hemolysis ([1]; human): 24.8 (22.9-26.8) µM
- mitochondrial membrane potential (ΔΨm) alteration [2]: significant ΔΨm depolarization
- mortality at 5 µM [3]: 37%
- IC50 [4]: 6.9 µM
- L. amazonensis mortality in the screening test ([4]; 48 h): 100%
- IC50 [10]: 26.3 µM
- SI: selectivity index, ratio of CC50 for macrophage/IC50 for L. amazonensis amastigotes [5]: 56
- SI: selectivity index, ratio of CC50 for macrophage/IC50 for L. amazonensis promastigotes [5]: 2.4
- CC50 at 48 h [6]: 16.8 µM
- IC50 [7, 12]: 0.3 µM

SMILES: CCCCCCCCCCCCCCCC[n+]1ccccc1.O.[Cl-] [C16PyrCl, 1-hexadecylpyridinium chloride monohydrate, reference compound]
- L. amazonensis mortality in the screening test ([4]; 48 h): 100%

SMILES: OO [H2O2, hydrogen peroxide, reference compound]
- ROS production [11]: significant elevation in ROS production
- mitochondrial membrane potential (ΔΨm) alteration [2]: mitochondrial depolarization

SMILES: C[C@@H]1[C@H](O)[C@@H](C)/C=C/C=C/C=C/C=C/C=C/C=C/C=C/[C@H](O[C@@H]2O[C@H](C)[C@@H](O)[C@H](N)[C@@H]2O)C[C@@H]2O[C@](O)(C[C@@H](O)C[C@@H](O)[C@H](O)CC[C@@H](O)C[C@@H](O)CC(=O)O[C@H]1C)C[C@H](O)[C@H]2C(=O)O [amphotericin B, reference compound]
- ROS production [11]: significant elevation in ROS production
- mitochondrial membrane potential (ΔΨm) alteration [2]: mitochondrial depolarization
- mortality at 5 µM [3]: 100%
- IC50 [4]: 0.4 µM
- mortality at 5 µM ([8]; read-out: mortality of L. infantum chagasi promastigotes): 100%
